Laboratory results from ChEMBL document CHEMBL5303573, “Mapping human microbiome drug metabolism by gut bacteria and their genes” (Nature, 2019).

Legend:
Type in all cases: ADME
Conditions in all cases: 2 µM
[1] = target: T1, Acyltransferase 3 domain-containing protein (Phocaeicola dorei, UniProt B6W2J3); experiment: (§1) The drug is tested on Bacteroides dorei strain: DSM17855 for biotransformation. The drug concentrations were measured before and after a 12-h incubation by liquid-chromatography-coupled mass spectrometry (LC–MS); set-up: dose 2 uM
T1 sequence (B6W2J3 whole entry): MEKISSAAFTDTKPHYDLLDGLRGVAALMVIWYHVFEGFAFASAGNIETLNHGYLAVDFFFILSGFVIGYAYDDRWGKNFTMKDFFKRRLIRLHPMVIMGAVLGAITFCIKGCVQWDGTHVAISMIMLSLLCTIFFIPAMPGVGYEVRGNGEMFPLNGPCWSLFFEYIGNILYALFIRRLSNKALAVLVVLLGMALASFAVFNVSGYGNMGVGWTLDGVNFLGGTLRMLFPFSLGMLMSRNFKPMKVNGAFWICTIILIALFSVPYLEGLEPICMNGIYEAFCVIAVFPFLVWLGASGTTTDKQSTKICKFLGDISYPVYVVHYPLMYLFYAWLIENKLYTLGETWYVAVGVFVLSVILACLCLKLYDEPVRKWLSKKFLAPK

Esterase = target: T2, Esterase (Phocaeicola dorei, UniProt B6W2J6); experiment: as §1; set-up: dose 2 uM
T2 sequence (B6W2J6 whole entry): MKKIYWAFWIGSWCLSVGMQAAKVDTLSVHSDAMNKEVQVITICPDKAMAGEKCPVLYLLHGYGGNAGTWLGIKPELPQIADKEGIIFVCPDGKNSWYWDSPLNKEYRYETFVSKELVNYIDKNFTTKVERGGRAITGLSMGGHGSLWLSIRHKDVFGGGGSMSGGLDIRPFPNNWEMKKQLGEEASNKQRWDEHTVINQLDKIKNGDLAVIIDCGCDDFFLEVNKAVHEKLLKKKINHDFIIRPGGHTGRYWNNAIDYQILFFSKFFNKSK

[2] = target: T3, Nitroreductase domain-containing protein (Phocaeicola dorei, UniProt B6VU18); experiment: as §1; set-up: dose 2 uM
T3 sequence (B6VU18 whole entry): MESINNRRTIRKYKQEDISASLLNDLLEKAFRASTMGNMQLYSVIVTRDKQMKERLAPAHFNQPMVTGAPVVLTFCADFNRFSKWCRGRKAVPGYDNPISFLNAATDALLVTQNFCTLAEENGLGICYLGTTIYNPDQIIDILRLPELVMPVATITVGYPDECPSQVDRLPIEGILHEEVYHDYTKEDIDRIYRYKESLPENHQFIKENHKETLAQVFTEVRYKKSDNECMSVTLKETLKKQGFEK

[3] = target: T4, Nitroreductase domain-containing protein (Phocaeicola dorei, UniProt B6W3P3); experiment: as §1; set-up: dose 2 uM
T4 sequence (B6W3P3 whole entry): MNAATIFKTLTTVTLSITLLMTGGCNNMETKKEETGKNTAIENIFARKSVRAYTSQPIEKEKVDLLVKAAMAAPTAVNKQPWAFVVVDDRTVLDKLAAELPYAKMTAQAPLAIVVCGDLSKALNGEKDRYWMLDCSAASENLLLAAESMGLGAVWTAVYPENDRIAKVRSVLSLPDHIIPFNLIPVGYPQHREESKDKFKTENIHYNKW

[4] = target: T5, SGNH hydrolase-type esterase domain-containing protein (Phocaeicola dorei, UniProt B6VTE7); experiment: as §1; set-up: dose 2 uM
T5 sequence (B6VTE7 whole entry): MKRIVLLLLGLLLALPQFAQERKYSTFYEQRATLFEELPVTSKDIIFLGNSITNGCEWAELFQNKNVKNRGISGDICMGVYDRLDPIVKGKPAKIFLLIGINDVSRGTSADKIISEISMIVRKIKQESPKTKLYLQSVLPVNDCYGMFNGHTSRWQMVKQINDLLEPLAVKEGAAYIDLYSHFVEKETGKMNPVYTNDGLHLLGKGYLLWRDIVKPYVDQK

[5] = target: T6, SGNH hydrolase-type esterase domain-containing protein (Phocaeicola dorei, UniProt B6W1J1); experiment: as §1; set-up: dose 2 uM
T6 sequence (B6W1J1 whole entry): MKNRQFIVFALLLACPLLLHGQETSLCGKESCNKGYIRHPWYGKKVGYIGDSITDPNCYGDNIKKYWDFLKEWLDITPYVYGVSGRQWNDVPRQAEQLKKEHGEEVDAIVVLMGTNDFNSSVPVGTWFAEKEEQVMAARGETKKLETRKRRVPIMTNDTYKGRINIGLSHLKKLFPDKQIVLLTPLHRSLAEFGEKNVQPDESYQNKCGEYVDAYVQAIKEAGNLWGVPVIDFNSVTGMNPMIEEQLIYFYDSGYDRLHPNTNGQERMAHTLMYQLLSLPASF

[6] = target: T7, SGNH hydrolase-type esterase domain-containing protein (Phocaeicola dorei, UniProt B6W293); experiment: as §1; set-up: dose 2 uM
T7 sequence (B6W293 whole entry): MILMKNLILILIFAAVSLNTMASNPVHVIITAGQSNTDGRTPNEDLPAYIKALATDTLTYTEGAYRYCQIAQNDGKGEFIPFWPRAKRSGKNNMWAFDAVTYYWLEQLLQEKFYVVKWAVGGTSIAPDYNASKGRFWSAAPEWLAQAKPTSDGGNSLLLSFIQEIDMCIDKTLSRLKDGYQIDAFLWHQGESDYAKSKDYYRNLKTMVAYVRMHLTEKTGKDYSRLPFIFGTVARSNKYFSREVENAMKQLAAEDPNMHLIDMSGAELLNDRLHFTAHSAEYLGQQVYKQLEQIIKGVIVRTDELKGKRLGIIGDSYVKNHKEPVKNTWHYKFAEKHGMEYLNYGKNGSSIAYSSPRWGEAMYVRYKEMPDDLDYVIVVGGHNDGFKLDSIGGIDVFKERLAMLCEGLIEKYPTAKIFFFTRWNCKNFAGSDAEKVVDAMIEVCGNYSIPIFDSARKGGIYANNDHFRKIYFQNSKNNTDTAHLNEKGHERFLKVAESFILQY

[7] = target: T8, Steroid 5-alpha reductase C-terminal domain-containing protein (Phocaeicola dorei, UniProt B6W0N3); experiment: as §1; set-up: dose 2 uM
T8 sequence (B6W0N3 whole entry): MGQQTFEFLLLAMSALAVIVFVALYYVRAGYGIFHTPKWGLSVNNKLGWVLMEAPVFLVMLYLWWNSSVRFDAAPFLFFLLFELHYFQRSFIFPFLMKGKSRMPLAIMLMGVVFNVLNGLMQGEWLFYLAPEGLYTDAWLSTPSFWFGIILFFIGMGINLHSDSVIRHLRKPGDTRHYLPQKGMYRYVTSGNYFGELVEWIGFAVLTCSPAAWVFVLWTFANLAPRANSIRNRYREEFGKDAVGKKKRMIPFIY

[8] = (§2) The drug is tested on the gut metagenome community of MV08 with ENA study accession number: PRJEB31790 and ENA sample accession number: SAMEA5537489 for biotransformation. The drug concentrations were measured over 9 timepoints collected between 0 and 24 hours of incubation by liquid-chromatography-coupled mass spectrometry (LC–MS); set-up: dose 2 uM, timepoint 0, 1, 2, 4, 6, 8, 12, 18, 24 hours
[9] = as §2, with “MV17” for “MV08”, “SAMEA5537498” for “SAMEA5537489”; set-up: dose 2 uM, timepoint 0, 1, 2, 4, 6, 8, 12, 18, 24 hours
[10] = as §2, with “MV19” for “MV08”, “SAMEA5537500” for “SAMEA5537489”; set-up: dose 2 uM, timepoint 0, 1, 2, 4, 6, 8, 12, 18, 24 hours
[11] = as §2, with “MV25” for “MV08”, “SAMEA5537506” for “SAMEA5537489”; set-up: dose 2 uM, timepoint 0, 1, 2, 4, 6, 8, 12, 18, 24 hours

SMILES	Bacterial Biotransformation [1]	Bacterial Biotransformation (Esterase)	Bacterial Biotransformation [2]	Bacterial Biotransformation [3]	Bacterial Biotransformation [4]	Bacterial Biotransformation [5]	Bacterial Biotransformation [6]	Bacterial Biotransformation [7]	Bacterial Biotransformation [8]	Bacterial Biotransformation [9]	Bacterial Biotransformation [10]	Bacterial Biotransformation [11]
C#C[C@]1(OC(C)=O)CC[C@H]2[C@@H]3CCC4=CC(=O)CC[C@@H]4[C@H]3CC[C@@]21C [NORETHINDRONE ACETATE]	Compound NOT metabolized	Compound NOT metabolized	Compound NOT metabolized	Compound NOT metabolized	Compound NOT metabolized	Compound NOT metabolized	Compound NOT metabolized	Compound metabolized	Compound metabolized	Compound metabolized	Compound NOT metabolized	Compound metabolized
CC(=O)OCC(CCn1cnc2cnc(N)nc21)COC(C)=O [FAMCICLOVIR]	Compound NOT metabolized	Compound metabolized	Compound NOT metabolized	Compound NOT metabolized	Compound metabolized		Compound metabolized	Compound NOT metabolized	Compound metabolized	Compound metabolized	Compound NOT metabolized	Compound metabolized
C#C[C@]1(O)CC[C@H]2[C@@H]3CCC4=CC(=O)CC[C@@H]4[C@H]3CC[C@@]21CC [LEVONORGESTREL]	Compound NOT metabolized	Compound NOT metabolized	Compound NOT metabolized	Compound NOT metabolized	Compound NOT metabolized	Compound NOT metabolized	Compound NOT metabolized	Compound metabolized				
COc1ccc([C@@H]2Sc3ccccc3N(CCN(C)C)C(=O)[C@@H]2OC(C)=O)cc1 [DILTIAZEM]	Compound NOT metabolized	Compound NOT metabolized	Compound NOT metabolized	Compound NOT metabolized	Compound NOT metabolized	Compound NOT metabolized	Compound NOT metabolized	Compound NOT metabolized	Compound NOT metabolized	Compound NOT metabolized	Compound NOT metabolized	Compound NOT metabolized
CC(=O)OCC(=O)[C@@]1(OC(C)=O)[C@@H](C)C[C@H]2[C@@H]3C[C@H](F)C4=CC(=O)C=C[C@]4(C)[C@@]3(F)[C@@H](O)C[C@@]21C [DIFLORASONE DIACETATE]	Compound NOT metabolized	Compound NOT metabolized	Compound NOT metabolized	Compound NOT metabolized				Compound NOT metabolized				
